We go through 32 compounds from patent US10610520B2, “Heterocyclic compound” (Takeda Pharmaceutical Company Limited, priority 2016, dated 2020).

One test deals with T1, His-hMAGL (recombinant polyhistidine tagged human MAGL protein) (Homo sapiens, UniProt Q99685).
T1 construct: made in house; host or cells: E. coli BL21(DE3)
T1 sequence (Q99685 1-303): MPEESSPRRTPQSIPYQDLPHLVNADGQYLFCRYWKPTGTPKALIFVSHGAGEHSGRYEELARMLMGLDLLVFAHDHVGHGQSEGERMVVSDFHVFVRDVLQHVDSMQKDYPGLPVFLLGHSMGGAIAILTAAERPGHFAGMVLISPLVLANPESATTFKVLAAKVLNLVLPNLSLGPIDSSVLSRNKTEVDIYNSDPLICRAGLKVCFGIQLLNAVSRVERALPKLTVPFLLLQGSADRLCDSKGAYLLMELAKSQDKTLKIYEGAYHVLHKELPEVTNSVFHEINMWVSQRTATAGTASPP
In words: Measurement of MAGL inhibitory activity (arachidonic acid production from 2-arachidonylglycerol, RapidFire-mass spectrometry). The class given is biochemical. The note with it: MAGL inhibitory rate, test compound 10 μM, 60 min preincubation, 2-arachidonylglycerol substrate. Summed up: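 Arachidonic acid formed was quantified by online solid-phase extraction and triple-quadrupole MS in negative SRM mode against a d8 internal standard. Reaction: recombinant His-hMAGL (7.5 ng/mL, pH 7.5 Tris buffer with Triton X-100 and BSA) plus 2-AG (5 μL of 150 μM stock) for 10 min at room temperature, quenched with 2% formic acid. Percent inhibition corrected for enzyme-free background.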
On to `COC(=O)c1cccc(-c2ccc(CC3CCN(C(=O)N4CC5(CCC(=O)N5)C4)CC3)cc2)c1` [Example 110, methyl 4′-((1-((6-oxo-2,5-diazaspiro[3.4]oct-2-yl)carbonyl)piperidin-4-yl)methyl)biphenyl-3-carboxylate], for which the inhibition at 10 µM turned out to be 101%.
Consider `O=C1CCC2(CN(C(=O)N3CC(COc4ccc(F)cc4Cl)C3)C2)N1` [Example 34, 2-((3-((2-chloro-4-fluorophenoxy)methyl)azetidin-1-yl)carbonyl)-2,5-diazaspiro[3.4]octan-6-one], for which the inhibition at 10 µM was determined as 99%.
Take `Cc1c(C(=O)N2CC3(CCC(=O)N3)C2)sc2ccccc12` [Example 141, 2-((3-methyl-1-benzothiophen-2-yl)carbonyl)-2,5-diazaspiro[3.4]octan-6-one]: the inhibition at 10 µM came out at 92%.
Still for that read-out and setting: as for `O=C1CCC2(CN(C(=O)c3ccc(-c4ccc(F)c(C(F)(F)F)c4)cc3)C2)N1` [Example 50, 2-((4′-fluoro-3′-(trifluoromethyl)biphenyl-4-yl)carbonyl)-2,5-diazaspiro[3.4]octan-6-one], the figure is 98%.
For the compound `O=C1NC2(CO1)CN(C(=O)c1sc3cc(-c4c(F)cccc4F)ccc3c1Cl)C2` [Example 345, 2-((3-chloro-6-(2,6-difluorophenyl)-1-benzothiophen-2-yl)carbonyl)-7-oxa-2,5-diazaspiro[3.4]octan-6-one], the inhibition at 10 µM stood at 100%.
Still for that read-out and setting: as for `O=C1CCC2(CN(C(=O)c3sc4ccccc4c3Cl)C2)N1` [Example 134, 2-((3-chloro-1-benzothiophen-2-yl)carbonyl)-2,5-diazaspiro[3.4]octan-6-one], the figure is 98%; as for `O=C1NC2(CO1)CN(C(=O)c1sc3c(Cl)ccc(OC(F)(F)F)c3c1Cl)C2` [Example 297, 2-((3,7-dichloro-4-(trifluoromethoxy)-1-benzothiophen-2-yl)carbonyl)-7-oxa-2,5-diazaspiro[3.4]octan-6-one], 100%; as for `COc1cc(-c2ccccc2)ccc1C(=O)N1CC2(CCC(=O)N2)C1` [Example 43, 2-((3-methoxybiphenyl-4-yl)carbonyl)-2,5-diazaspiro[3,4]octan-6-one], 87%.
On to `Cc1c(C(=O)N2CC3(CCC(=O)N3)C2)sc2ccc([N+](=O)[O-])cc12` [Example 151, 2-((3-methyl-5-nitro-1-benzothiophen-2-yl)carbonyl)-2,5-diazaspiro[3.4]octan-6-one], for which the inhibition at 10 µM worked out at 93%.
`O=C1NC2(CO1)CN(C(=O)c1sc3c(OC(F)(F)F)ccc(F)c3c1Cl)C2` [Example 267, 2-((3-chloro-4-fluoro-7-(trifluoromethoxy)-1-benzothiophen-2-yl)carbonyl)-7-oxa-2,5-diazaspiro[3.4]octan-6-one]: the inhibition at 10 µM turned out to be 101%.
For `Cc1cc(-c2ccc3c(Cl)c(C(=O)N4CC5(CCC(=O)N5)C4)sc3c2)ccc1F` [Example 210, 2-((3-chloro-6-(4-fluoro-3-methylphenyl)-1-benzothiophen-2-yl)carbonyl)-2,5-diazaspiro[3.4]octan-6-one], the inhibition at 10 µM is 101%.
Take `O=C1CCC2(CN(C(=O)c3ccc(-c4ccccc4)cc3F)C2)N1` [Example 31, 2-((3-fluorobiphenyl-4-yl)carbonyl)-2,5-diazaspiro[3.4]octan-6-one]: the inhibition at 10 µM turned out to be 84%.
With `O=C1CCC2(CN(C(=O)c3sc4ccc(OC(F)(F)F)cc4c3Cl)C2)N1` [Example 253, 2-((3-chloro-5-(trifluoromethoxy)-1-benzothiophen-2-yl)carbonyl)-2,5-diazaspiro[3.4]octan-6-one], the inhibition at 10 µM was determined as 99%.
As for `Cc1c(OC(F)(F)F)ccc2c(Cl)c(C(=O)N3CCC4(COC(=O)N4)C3)sc12` (centres unmarked) [Example 329, 7-((3-chloro-7-methyl-6-(trifluoromethoxy)-1-benzothiophen-2-yl)carbonyl)-3-oxa-1,7-diazaspiro[4.4]nonan-2-one], the inhibition at 10 µM came to 100%.
Turning to `CC(Oc1ccc(F)cc1Cl)C1CCN(C(=O)N2CC3(CCC(=O)N3)C2)CC1` (centres unmarked) [Example 7, 2-((4-(1-(2-chloro-4-fluorophenoxy)ethyl)piperidin-1-yl)carbonyl)-2,5-diazaspiro[3.4]octan-6-one], the inhibition at 10 µM worked out at 103%.
`O=C1CCC2(CN(C(=O)c3ccc(-c4cccc5c4OCC5)cc3)C2)N1` [Example 94, 2-(4-(2,3-dihydro-1-benzofuran-7-yl)benzoyl)-2,5-diazaspiro[3.4]octan-6-one]: the inhibition at 10 µM stood at 93%.
As to `O=C1NC2(CO1)CN(C(=O)c1sc3cc(C(F)F)ccc3c1Cl)C2` [Example 278, 2-((3-chloro-6-(difluoromethyl)-1-benzothiophen-2-yl)carbonyl)-7-oxa-2,5-diazaspiro[3.4]octan-6-one], the inhibition at 10 µM was 101%.
The same measure, in the same setting: as for `O=C1CCC2(CN(C(=O)c3sc4cc(-c5ccccc5OC(F)(F)F)ccc4c3Cl)C2)N1` [Example 199, 2-((3-chloro-6-(2-(trifluoromethoxy)phenyl)-1-benzothiophen-2-yl)carbonyl)-2,5-diazaspiro[3.4]octan-6-one], the figure is 100%; as for `O=C1NC2(CO1)CN(C(=O)c1sc3c(Cl)c(OC(F)(F)F)ccc3c1Cl)C2` [Example 290, 2-((3,7-dichloro-6-(trifluoromethoxy)-1-benzothiophen-2-yl)carbonyl)-7-oxa-2,5-diazaspiro[3.4]octan-6-one], 101%.
Same read-out and setting: as for `Cc1ccc(-c2ccc3c(Cl)c(C(=O)N4CC5(CCC(=O)N5)C4)sc3c2)cc1F` [Example 206, 2-((3-chloro-6-(3-fluoro-4-methylphenyl)-1-benzothiophen-2-yl)carbonyl)-2,5-diazaspiro[3.4]octan-6-one], the figure is 96%.
Still for that read-out and setting: as for `O=C1CCC2(CN(C(=O)N3CCC(Cc4ccc(Cl)cc4C(F)(F)F)CC3)C2)N1` [Example 105, 2-((4-(4-chloro-2-(trifluoromethyl)benzyl)piperidin-1-yl)carbonyl)-2,5-diazaspiro[3.4]octan-6-one], the figure is 102%; as for `COc1ccccc1-c1ccc2c(Cl)c(C(=O)N3CC4(CCC(=O)N4)C3)sc2c1` [Example 195, 2-((3-chloro-6-(2-methoxyphenyl)-1-benzothiophen-2-yl)carbonyl)-2,5-diazaspiro[3.4]octan-6-one], 100%; as for `O=C1NC2(CCN(C(=O)c3sc4cc(C(F)(F)F)c(F)cc4c3Cl)C2)CO1` (centres unmarked) [Example 343, 7-((3-chloro-5-fluoro-6-(trifluoromethyl)-1-benzothiophen-2-yl)carbonyl)-3-oxa-1,7-diazaspiro[4.4]nonan-2-one], 100%.
On to `O=C1CCC2(CN(C(=O)c3sc4cc(-c5ccc(C6CC6)cc5)ccc4c3Cl)C2)N1` [Example 217, 2-((3-chloro-6-(4-cyclopropylphenyl)-1-benzothiophen-2-yl)carbonyl)-2,5-diazaspiro[3.4]octan-6-one], for which the inhibition at 10 µM is 97%.
On to `O=C1CCC2(CN(C(=O)N3CCC(Cc4ccc(F)cc4F)CC3)C2)N1` [Example 98, 2-((4-(2,4-difluorobenzyl)piperidin-1-yl)carbonyl)-2,5-diazaspiro[3.4]octan-6-one], for which the inhibition at 10 µM amounted to 101%.
For the compound `O=C1CCC2(CN(C(=O)c3sc4cc(-c5cccc(Cl)c5)ccc4c3Cl)C2)N1` [Example 190, 2-((3-chloro-6-(3-chlorophenyl)-1-benzothiophen-2-yl)carbonyl)-2,5-diazaspiro[3.4]octan-6-one], the inhibition at 10 µM was 99%.
On the same count and under the same terms, as for `O=C1CCC2(CN(C(=O)c3ccc(-c4coc5ccccc45)cc3)C2)N1` [Example 66, 2-(4-(1-benzofuran-3-yl)benzoyl)-2,5-diazaspiro[3.4]octan-6-one], the figure is 98%; as for `O=C1CCC2(CN(C(=O)c3sc4cc(-c5cccc(F)c5Cl)ccc4c3Cl)C2)N1` [Example 220, 2-((3-chloro-6-(2-chloro-3-fluorophenyl)-1-benzothiophen-2-yl)carbonyl)-2,5-diazaspiro[3.4]octan-6-one], 100%.
Still for that read-out and setting: as for `O=C1NC2(CO1)CN(C(=O)c1sc3cc(OCC(F)(F)F)ccc3c1Cl)C2` [Example 287, 2-((3-chloro-6-(2,2,2-trifluoroethoxy)-1-benzothiophen-2-yl)carbonyl)-7-oxa-2,5-diazaspiro[3.4]octan-6-one], the figure is 101%; as for `O=C1CCC2(CN(C(=O)c3cc4ccc(OCc5ccc(Cl)cc5Cl)cc4s3)C2)N1` [Example 145, 2-((6-((2,4-dichlorobenzyl)oxy)-1-benzothiophen-2-yl)carbonyl)-2,5-diazaspiro[3.4]octan-6-one], 87%; as for `Cc1ccc(Cl)c(-c2ccc(C(=O)N3CC4(CCC(=O)N4)C3)cc2)c1` [Example 81, 2-((2′-chloro-5′-methylbiphenyl-4-yl)carbonyl)-2,5-diazaspiro[3.4]octan-6-one], 94%.

Still in this test, the particulars now being: MAGL inhibitory rate, test compound 10 μM, 60 min preincubation, 2-arachidonylglycerol substrate; 10 µM.
`Cc1c(OC(F)(F)F)ccc2c(Cl)c(C(=O)N3CCC4(COC(=O)N4)C3)sc12` (centres unmarked) [Example 330, 7-((3-chloro-7-methyl-6-(trifluoromethoxy)-1-benzothiophen-2-yl)carbonyl)-3-oxa-1,7-diazaspiro[4.4]nonan-2-one]: the “% inhibition (10 μM)” value amounted to 96%.

As a reminder, the inhibition is the relative decrease from the control value, in per cent.
